Assays:
[1] = tested on: peritoneal murine macrophages; assay: Phagocytosis of heat killed Candida albicans by murine macrophages (in vitro); type: cell-based; settings: 5 μg/ml
Protocol: The method of Lehrer (1981) [Lehrer, R. I. Ingestion and destruction of Candida albicans. (1981) In: Methods for studying mono-nuclear phagocytes. Eds. Adams, D. O., Edelson, P. J. and Koren, H. (Academic Press, New York) 693-7081 was followed. The percentage and average number of Candida albicans cells (heatkilled) ingested by peritoneal murine macrophages was calculated. AD-B-63B was tested at the doses of 1, 2.5, Sand 10 μg/mL (Table 4).

[2] = tested on: cell mediated immune response (DTH); assay: SRBC induced delayed type hypersensitivity (DTH) response; type: in vivo, mice; settings: 5 mg/kg p.o.
Protocol: Test material was administered 2 h after immunization of mice by 200 μl of 5×10^9 SRBCs/ml. On 7th day, the thickness of the left hind foot was measured with spheromicrometer (0.01 mm pitch) and was considered as control. These mice were then challenged by injecting the 20 μl of 5×10^9 SRBCs/ml intradermally into the left hind footpad. The footpad thickness was measured again at 24 h after challenge (Doherty, 1981).

[3] = tested on: humoral antibody response; assay: SRBC induced haemagglutination antibody titre (humoral immune response); type: in vivo, mice
Protocol: 200 μl of 5×10^9 SRBC/ml was used to immunize the animals on day 0. Animals were treated with graded doses of AD-B-63B i.e., 1, 2.5, 5 and 10mg/kg p.o. for next six consecutive days. Blood samples were collected on day 7 for antibody titre assay. Haemagglutination antibody titre was determined following the microtitration technique described by Nelson and Midenhall, 1967. The value of highest serum dilution causing visible Haemagglutination was taken as titre. BSA saline alone served as control (Table 7).

leucocyte migration = assay: In vivo leucocyte migration (carrageenan induced pleurisy); set-up: species or system mice; settings: 5 mg/kg p.o.
Protocol: Mice were injected with 0.2 ml of carrageenan (1% w/v) solution in sterilised normal saline into the pleural cavity by the modified method of Meacock and Kitchen, 1979 [Meacock S C R, Kitchen E A, (1979). Effect of non-steroidal antiinflammatory drug benoxaprofen on leukocyte migration. Journal of Pharmacy & Pharmacology; 31: 366-370]. The test drug was administered orally 1 h before and 6 h after the injection. After 24 h of carrageenan injection the pleural exudate was collected, volume measured and the total leucocyte count of the pleural fluid was determined (Table 3). Flowcytometry as a tool for evaluation of neutrophils is particularly useful because of their larger size than monocytes and lymphocytes when analysed on the forward scatter [FSc]. The percentage of these can be analysed by selectively ‘gating’ the neutrophils without physical separation of the cells (FIG. 4).

skin allograft rejection = assay: Skin allograft rejection time; type: in vivo, mice; settings: for GRAFT REJECTION (Percent), delayed: 5 mg/kg p.o.
Protocol: The modified method of Billingham and Medawar (1951) [[…]] was followed to study the skin allograft rejection time in mice. Graded doses of test material AD-B-63B were administered to the animals for 7 days and graft rejection time (GRT) was recorded by daily observation of epithelial skin layer survival. […] The basic mechanism involved in increase in graft rejection time is the suppression of T lymphocytes. After transplantation, MHC peptide complexes of the foreign organ are recognized by CD4+ and CD8+ T cells of the recipient as non-self antigens. These T cells differentiate into effector T cells and stimulate an immune response. After T cells differentiate and migrate to the site, macrophages and other inflammatory agents are mediated to the site. Cytotoxic T cells (CD8+) lyse the endothelial cells on the graft, CD4+ Th1 activate macrophages and CD4+ Th2 aid in antibody production.

[4] = tested on: Interleukin-1beta (IL-1β); assay: Extracellular IL-1β in LPS stimulated murine neutrophils (ELISA, in vitro); type: cell-based; settings: 100 μg/ml
Protocol: Neutrophils were separated from whole blood by Histopaque gradient method (Histopaque-No. 1077). Cell count was adjusted to approximately 10^5/[…]. Lipopolysaccharide, at the concentration of 10 ng/ml was used as stimulus in in-vitro studies. […] Extracellular IL-1β was estimated through ELISA (Table 2) [Weir, R. E., Morgan, A. R., Britton, W. J., Butlin, C. R., Dockrell, H. M., 1994. Development of a whole blood assay to measure T cell responses to leprosy: a new tool for immuno-epidemiological fields studies of leprosy immunity. J. Immunol. Methods. 176, 93; Hussain, R., Kaleem, A., Shahid, F., Dojki, M., Jamil, B., Mehmood, H., Dawood, G., Dockrell, H., 2002. Cytokine profiles using whole blood assays can discriminate between tuberculosis patients and healthy endemic controls in a BCG-vaccinated population. J. Immunol. Methods. 264, 95-108]

TNF-α = assay: Intracellular TNF-α estimation in LPS activated murine neutrophils by flowcytometry; type: cell-based; settings: 100 μg/ml
Protocol: Flowcytometric studies were carried out to determine the anti-inflammatory effect of AD-B-63B on TNF-α cytokine expression in LPS activated murine neutrophils. Neutrophils play essential roles in host defence through their ability to clear bacterial infections. Their inappropriate activation contributes to a variety of inflammatory diseases, from the acute respiratory distress syndrome to asthma, chronic obstructive pulmonary disease and rheumatoid arthritis. TNF-α was chosen as the target for anti-inflammatory activity because of the fact that it is a pro-inflammatory cytokine and plays a major role in the pathogenesis of septic shock induced by LPS (Lipopolysaccharide) endotoxin injection [Remick, D. G.; Strieter, R. M.; Eskandari, M. K.; Nguyen, D. T.; Genord, M. A.; Raiford, C. L. Am. J. Path. 1990, 136, 49.]. LPS is an important triggering factor for in vivo systemic inflammatory response [Bone, R. C. Chest 1991, 100, 802]. LPS activates neutrophils via engagement of TLR4 (Toll-like receptor 4),[Sabroe, I.; Read, R. C.; Whyte, M. K. B.; Dockrell, D. H.; Vogel, S. N.; Dower, S. K. J. Immunol. 2003, 171, 1630.] resulting in the induction of a characteristic pro-inflammatory phenotype and prolongation of cell lifespan [Lee, A.; Whyte, M. K. B.; Haslett, C. J. Leukoc. Biol. 1993, 54, 283].
The anti-inflammatory activity of AD-B-63B was measured by the estimation of intracellular tumor necrosis factor alpha (TNF-α) expression in a gated population of neutrophils [Clara, B., R. C. Arancha, G. M. Andre's, P. Atanasio, A. Julia, and O. Alberto. 2003. A new method for detecting TNF-α-secreting cells using direct immunofluorescence surface membrane stainings. J. Immuno. Methods 264:77-87.]. Murine blood was subjected to centrifugation at 250× g for 20 min. Three layers were formed: an upper layer of platelet-rich plasma, a buffy coat middle layer and a lower layer formed of red blood cells. The middle layer was removed and subjected to Histopaque 1077 (Sigma) gradient separation. The upper layer containing neutrophils was removed and transferred to FACS tubes (Becton Dickinson). Lipopolysaccharide (LPS) derived from Escherichia coli (Sigma) was added at a concentration of 10 ng/ml for the stimulation of the cells. AD-B-63B was added at graded concentrations of 0.5, 1, 2.5, 5, 10 and 20 μg/ml. Samples were incubated for 3 h at 37° C. ( Table 1) Controls consisted of LPS-stimulated cells (LPS control). Further processing was done by the addition of FACS permeabilizing solution (Becton Dickinson), followed by the addition of phycoerythrin (PE)-labeled anti-mouse TNF-α. (Becton Dickinson). The cells were incubated in the dark, and after being washed with sterile PBS, samples were resuspended in PBS (pH 7.4) and acquired directly on the flow cytometer (FACS CANTO; Becton Dickinson). A fluorescence trigger was set on the […] parameter of the gated neutrophil populations (10,000 events). Rolipram at 100 μg/ml was used as standard inhibitor of TNF-α in this study. Fluorescence compensation, data analysis and data presentation were performed using software (Becton Dickinson) (FIG. 1) [Pandey A, Bani S, Kaul S, Sangawan P L; 2010, Selective Th1 upregulation by ethyl acetate fraction of Labisia pumila; 132 (2010) 309-315].

Compound	% phagocytosis [in vitro study] Mean ± S.E. [1] [%]	percent decrease in phagocytosis [1] [%]	percent decrease in phagocytosis ([1]; listed as PREDNISOLONE)	PERCENT INHIBITION (DTH response) [2]	FOOT PAD THICKNESS Mean ± SE ([2]; 24 h after SRBC challenge) [mm]	% ACTIVITY (decrease in antibody titre) ([3]; 5 mg/kg p.o.)	ANTIBODY TITRE MEAN ± S.E ([3]; 5 mg/kg p.o. for six days, blood on day 7)	% inhibition of exudate volume (leucocyte migration)	% inhibition of total leucocyte count (leucocyte migration)	EXUDATE VOLUME Mean ± S.E. (leucocyte migration; 1 h before and 6 h after carrageenan, pleural exudate at 24 h) [mL]	GRAFT REJECTION (Percent), delayed (skin allograft rejection) [%]	REJECTION TIME Mean ± S.E. (skin allograft rejection; 5 mg/kg p.o. for 7 days) [days]	GRAFT REJECTION (Percent), delayed (skin allograft rejection; listed as PREDNISOLONE)	% activity IL-1β expression against LPS control (decrease) [4]	Concentration of IL-1β produced Mean ± S.E. ([4]; LPS 10 ng/ml, 4 hr) [pg/mL]	Expression of intracellular TNF-alpha, Mean ± S.E (TNF-α; LPS 10 ng/ml, 3 h)	inhibition at 100 µg/mL (TNF-α; Mus musculus, Neutrophil, read-out: % TNF-alpha inhibition against LPS control) [%]
C[C@]12C=CC(=O)C=C1CC[C@@H]1[C@@H]2[C@@H](O)C[C@@]2(C)[C@H]1CC[C@]2(O)C(=O)CO [Prednisolone, reference compound]	15.99 ± 2.17	40.35	(40.35%↓)	35.86↓ %	0.59 ± 0.05	35.22↓ %	3.99 ± 0.22	(47.27%↓)	(33.23%↓)	0.58 ± 0.28	39.69	18.16 ± 0.16	39.69↓ %				
COc1ccc(C2CNC(=O)C2)cc1OC1CCCC1 (centres unmarked) [Rolipram, reference compound]														52.85↓ %	63.52 ± 2.07	0.74 ± 0.04	72.5
